Experimental data: ChEMBL document CHEMBL3044565, “Pharmacopore hypothesis generation of BACE-1 inhibitors and pharmacophore-driven identification of potent multi-target neuroprotective agents” (Med Chem Res, 2012)
*1 amine or outer side, *2 acyl side, *3 side chain or, on linkers, in order; H or OH if unused. Where a SMILES comes first, the peptide text is derived from it. [ ]: non-standard residue; d: D form. LeuΨ(S-CHOHCH2)Ala = CC(C)C[C@H](N[*:1])[C@@H](O)C[C@@H](C)C(=O)[*:2]

Experiments:
[1] = target: T1, Beta-secretase 1 (Homo sapiens, UniProt P56817); assay: Inhibition of BACE1 (unknown origin) at 10 ug/ml after 1 hr by FRET assay
T1 sequence (P56817 whole entry): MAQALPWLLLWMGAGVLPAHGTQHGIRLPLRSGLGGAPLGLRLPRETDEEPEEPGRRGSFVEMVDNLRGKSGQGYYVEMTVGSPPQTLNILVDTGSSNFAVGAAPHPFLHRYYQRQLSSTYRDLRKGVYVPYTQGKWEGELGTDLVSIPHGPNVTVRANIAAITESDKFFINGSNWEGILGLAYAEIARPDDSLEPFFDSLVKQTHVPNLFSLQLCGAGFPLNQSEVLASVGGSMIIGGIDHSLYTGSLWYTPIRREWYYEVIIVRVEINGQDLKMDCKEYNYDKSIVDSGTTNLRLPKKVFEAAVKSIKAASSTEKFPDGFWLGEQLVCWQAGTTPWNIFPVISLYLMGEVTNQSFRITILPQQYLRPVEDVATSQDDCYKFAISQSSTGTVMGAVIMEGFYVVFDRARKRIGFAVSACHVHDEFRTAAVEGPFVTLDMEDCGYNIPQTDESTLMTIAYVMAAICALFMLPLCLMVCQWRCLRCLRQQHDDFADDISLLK

[2] = Neuroprotective activity in Homo sapiens (human) SH-SY5Y cells assessed as reduction of amyloid beta-induced cell death at 10 ug/ml inubated for 1 hr prior to amyloid beta induction measured after 48 hr by MTT assay; format: functional; parameters: scale not given: the % may be the effect or the level left
[3] = target: T1, Beta-secretase 1; assay: Inhibition of Homo sapiens (human) Beta-secretase 1
[4] = target: T1, Beta-secretase 1; assay: Inhibition of BACE1 (unknown origin)

Structure (SMILES)	inhibition [1] [%]	Activity [2] [%]	IC50 [3] [nM]	Ki [4] [nM]
O=C(/C=C/c1ccccc1)Nc1nc(-c2ccccc2)cs1	23.6			
CCOC(=O)CCC(=O)NC1=NC2CCCCC2S1 (stereo not given)	26.7	26.1		
CC(C)C[C@H](NC(=O)[C@H](CC(N)=O)NC(=O)[C@@H](NC(=O)[C@@H](N)CC(=O)O)C(C)C)[C@@H](O)C[C@@H](C)C(=O)N[C@@H](C)C(=O)N[C@@H](CC(=O)O)C(=O)N[C@@H](Cc1ccccc1)C(=O)O (H-DVN[LeuΨ(S-CHOHCH2)Ala]ADF-OH)			2	1.6
CCOC(=O)CCC(=O)Nc1nc(-c2ccccc2)cs1	31.8	45.5		
COc1cc(/C=C/C(=O)Nc2nc(-c3ccccc3)cs2)cc(OC)c1	24.5			
O=C(Nc1nc(-c2ccccc2)cs1)c1ccncc1	29.1	8.2		
